Experimental data published in ChEMBL document CHEMBL3991601, “The target landscape of clinical kinase drugs” (Science, 2017).
Active and inactive are the calls of the source.

Tests used:
[1] = target: T1, Serine/threonine-protein kinase ULK1 (Homo sapiens, UniProt O75385)
T1 sequence (O75385 whole entry): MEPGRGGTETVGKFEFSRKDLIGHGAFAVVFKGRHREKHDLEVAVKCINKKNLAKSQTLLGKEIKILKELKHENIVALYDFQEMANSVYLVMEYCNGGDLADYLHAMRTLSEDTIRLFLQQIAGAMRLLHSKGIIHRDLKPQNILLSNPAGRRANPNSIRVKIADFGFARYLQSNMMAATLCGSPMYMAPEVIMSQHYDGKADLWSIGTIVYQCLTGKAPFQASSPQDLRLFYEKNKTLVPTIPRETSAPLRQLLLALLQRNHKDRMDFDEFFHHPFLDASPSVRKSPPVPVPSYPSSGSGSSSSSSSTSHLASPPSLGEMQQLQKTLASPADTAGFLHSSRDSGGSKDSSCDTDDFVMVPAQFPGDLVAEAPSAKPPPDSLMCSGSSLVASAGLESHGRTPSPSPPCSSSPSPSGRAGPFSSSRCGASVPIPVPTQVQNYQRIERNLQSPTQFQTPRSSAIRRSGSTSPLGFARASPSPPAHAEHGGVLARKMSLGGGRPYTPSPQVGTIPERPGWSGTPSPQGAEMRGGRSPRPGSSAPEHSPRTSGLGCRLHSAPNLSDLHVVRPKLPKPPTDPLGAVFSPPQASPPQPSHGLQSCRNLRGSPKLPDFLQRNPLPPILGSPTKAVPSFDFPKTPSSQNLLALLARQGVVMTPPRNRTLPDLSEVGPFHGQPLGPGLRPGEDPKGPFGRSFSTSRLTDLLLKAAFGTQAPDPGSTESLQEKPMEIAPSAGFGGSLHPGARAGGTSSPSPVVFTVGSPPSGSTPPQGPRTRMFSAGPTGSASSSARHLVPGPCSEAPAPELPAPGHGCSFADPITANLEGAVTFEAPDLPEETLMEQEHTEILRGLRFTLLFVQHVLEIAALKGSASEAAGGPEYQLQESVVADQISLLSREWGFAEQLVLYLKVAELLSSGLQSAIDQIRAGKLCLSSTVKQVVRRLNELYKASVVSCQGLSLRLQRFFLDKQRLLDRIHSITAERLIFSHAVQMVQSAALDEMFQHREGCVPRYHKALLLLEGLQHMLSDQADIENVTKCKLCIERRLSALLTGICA

[2] = target: T2, Tyrosine-protein kinase Tec (Homo sapiens, UniProt P42680)
T2 sequence (P42680 whole entry): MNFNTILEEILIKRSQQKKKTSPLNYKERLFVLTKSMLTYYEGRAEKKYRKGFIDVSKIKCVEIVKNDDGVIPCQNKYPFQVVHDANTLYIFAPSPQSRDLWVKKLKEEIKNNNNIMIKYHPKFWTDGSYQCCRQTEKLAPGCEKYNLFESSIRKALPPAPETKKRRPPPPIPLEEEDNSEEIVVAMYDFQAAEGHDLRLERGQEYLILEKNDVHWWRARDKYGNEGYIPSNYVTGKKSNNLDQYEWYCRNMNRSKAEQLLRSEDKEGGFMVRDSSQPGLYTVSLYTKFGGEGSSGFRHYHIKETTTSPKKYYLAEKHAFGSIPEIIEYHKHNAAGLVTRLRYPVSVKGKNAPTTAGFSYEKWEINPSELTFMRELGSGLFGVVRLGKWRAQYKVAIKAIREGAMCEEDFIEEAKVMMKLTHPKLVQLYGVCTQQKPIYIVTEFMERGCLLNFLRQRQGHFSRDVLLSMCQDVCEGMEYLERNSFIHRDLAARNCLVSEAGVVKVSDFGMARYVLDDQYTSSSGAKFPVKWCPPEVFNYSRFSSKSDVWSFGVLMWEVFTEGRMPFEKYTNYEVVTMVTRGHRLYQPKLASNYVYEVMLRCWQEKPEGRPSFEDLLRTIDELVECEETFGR

Ephrin type-B receptor 3 = target: T3, Ephrin type-B receptor 3 (Homo sapiens, UniProt P54753)
T3 sequence (P54753 whole entry): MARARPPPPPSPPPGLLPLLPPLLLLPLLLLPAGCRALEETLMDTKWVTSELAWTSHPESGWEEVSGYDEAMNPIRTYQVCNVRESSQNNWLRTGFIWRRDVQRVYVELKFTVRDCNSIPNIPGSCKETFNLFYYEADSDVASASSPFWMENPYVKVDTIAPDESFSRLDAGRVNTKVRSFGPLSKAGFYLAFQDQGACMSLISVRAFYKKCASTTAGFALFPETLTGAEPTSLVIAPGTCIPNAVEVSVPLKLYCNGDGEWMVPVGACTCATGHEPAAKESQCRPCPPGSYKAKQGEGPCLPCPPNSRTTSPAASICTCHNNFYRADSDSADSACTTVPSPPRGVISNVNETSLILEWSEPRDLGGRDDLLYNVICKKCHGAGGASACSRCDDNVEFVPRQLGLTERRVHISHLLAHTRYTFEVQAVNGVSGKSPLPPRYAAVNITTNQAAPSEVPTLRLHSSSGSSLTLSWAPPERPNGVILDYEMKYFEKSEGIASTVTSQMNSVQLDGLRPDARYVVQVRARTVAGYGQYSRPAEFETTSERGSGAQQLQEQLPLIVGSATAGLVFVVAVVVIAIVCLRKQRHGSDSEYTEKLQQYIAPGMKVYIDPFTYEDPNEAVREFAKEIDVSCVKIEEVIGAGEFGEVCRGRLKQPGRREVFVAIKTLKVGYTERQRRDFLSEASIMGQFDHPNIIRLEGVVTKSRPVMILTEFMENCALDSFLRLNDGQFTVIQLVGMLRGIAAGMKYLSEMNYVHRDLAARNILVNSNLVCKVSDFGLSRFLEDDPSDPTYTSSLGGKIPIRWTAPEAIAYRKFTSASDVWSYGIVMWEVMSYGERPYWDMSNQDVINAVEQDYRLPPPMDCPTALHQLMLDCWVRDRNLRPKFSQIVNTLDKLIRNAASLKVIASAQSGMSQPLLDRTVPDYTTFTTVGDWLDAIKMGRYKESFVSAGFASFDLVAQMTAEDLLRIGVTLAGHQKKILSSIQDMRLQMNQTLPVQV

[3] = target: Structural maintenance of chromosomes protein 2 (Homo sapiens, UniProt O95347)
[4] = target: NADH dehydrogenase [ubiquinone] 1 alpha subcomplex subunit 13 (Homo sapiens, UniProt Q9P0J0)
Further: in the data inactive means no Kd found up to 30 µM.

Chain of Structural maintenance of chromosomes protein 2 (O95347 whole entry): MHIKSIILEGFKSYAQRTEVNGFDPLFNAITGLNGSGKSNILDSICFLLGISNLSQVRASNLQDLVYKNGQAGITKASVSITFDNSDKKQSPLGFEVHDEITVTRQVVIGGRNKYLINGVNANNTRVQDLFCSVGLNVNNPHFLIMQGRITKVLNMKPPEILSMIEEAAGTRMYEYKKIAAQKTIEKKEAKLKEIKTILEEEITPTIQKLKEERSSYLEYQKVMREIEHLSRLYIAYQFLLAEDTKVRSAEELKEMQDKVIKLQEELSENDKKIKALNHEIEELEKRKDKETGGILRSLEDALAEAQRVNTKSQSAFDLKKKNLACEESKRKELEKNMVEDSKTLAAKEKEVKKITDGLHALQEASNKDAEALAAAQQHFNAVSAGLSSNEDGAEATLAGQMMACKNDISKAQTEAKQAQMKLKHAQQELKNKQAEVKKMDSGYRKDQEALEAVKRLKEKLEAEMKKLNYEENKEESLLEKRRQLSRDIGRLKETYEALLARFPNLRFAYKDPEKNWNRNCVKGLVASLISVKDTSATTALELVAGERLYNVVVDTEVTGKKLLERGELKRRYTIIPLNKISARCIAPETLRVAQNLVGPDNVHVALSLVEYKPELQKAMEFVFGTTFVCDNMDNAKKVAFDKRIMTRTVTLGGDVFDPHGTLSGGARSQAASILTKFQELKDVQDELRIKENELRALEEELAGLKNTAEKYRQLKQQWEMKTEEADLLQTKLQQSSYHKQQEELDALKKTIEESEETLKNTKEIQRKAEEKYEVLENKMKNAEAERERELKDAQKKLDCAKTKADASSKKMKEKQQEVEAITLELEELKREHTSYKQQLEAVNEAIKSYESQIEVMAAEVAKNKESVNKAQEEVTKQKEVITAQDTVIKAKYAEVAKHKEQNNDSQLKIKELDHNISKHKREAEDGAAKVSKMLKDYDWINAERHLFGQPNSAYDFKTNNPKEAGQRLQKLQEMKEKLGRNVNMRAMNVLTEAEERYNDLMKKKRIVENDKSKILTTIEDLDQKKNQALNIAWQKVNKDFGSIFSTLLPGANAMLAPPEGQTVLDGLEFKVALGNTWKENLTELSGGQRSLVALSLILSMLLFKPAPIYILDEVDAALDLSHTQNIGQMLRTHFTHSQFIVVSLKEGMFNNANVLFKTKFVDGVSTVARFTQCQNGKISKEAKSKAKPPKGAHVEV
Chain of NADH dehydrogenase [ubiquinone] 1 alpha subcomplex subunit 13 (Q9P0J0 whole entry, one chain of several): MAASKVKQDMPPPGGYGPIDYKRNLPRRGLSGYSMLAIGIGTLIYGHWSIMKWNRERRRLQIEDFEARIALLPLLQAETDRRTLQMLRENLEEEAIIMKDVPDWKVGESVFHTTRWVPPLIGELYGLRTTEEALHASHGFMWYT

SMILES	Kd [1]	Kd [2]	Kd (Ephrin type-B receptor 3)	Kd [3]	Kd [4]
CCOc1cc2ncc(C#N)c(Nc3ccc(F)c(Cl)c3)c2cc1NC(=O)/C=C/CN(C)C [PELITINIB]	> 30 µM (inactive)	> 30 µM (inactive)	> 30 µM (inactive)	> 30 µM (inactive)	> 30 µM (inactive)
CCCCCCCCCCCCCCCCCCOP(=O)([O-])OC1CC[N+](C)(C)CC1 [PERIFOSINE]	> 30 µM (inactive)	> 30 µM (inactive)	> 30 µM (inactive)	> 30 µM (inactive)	> 30 µM (inactive)
Cc1nc(Nc2n[nH]c3c2CN(C(=O)N[C@H](CN(C)C)c2ccccc2)C3(C)C)c2sccc2n1 [PF-03758309]	> 30 µM (inactive)	1.23 µM (active)	> 30 µM (inactive)	> 30 µM (inactive)	> 30 µM (inactive)
Cc1cnc(NC(=O)Nc2cc(Br)c(C)cc2OC[C@@H]2CNCCO2)cn1 [RABUSERTIB]	> 30 µM (inactive)	> 30 µM (inactive)	> 30 µM (inactive)	> 30 µM (inactive)	> 30 µM (inactive)
CNC(=O)c1cc(Oc2ccc(NC(=O)Nc3cc(C(C)(C)C)nn3-c3ccc4ncccc4c3)c(F)c2)ccn1 [REBASTINIB]	> 30 µM (inactive)	> 30 µM (inactive)	> 30 µM (inactive)	> 30 µM (inactive)	> 30 µM (inactive)
CO[C@H]1C[C@@H]2CC[C@@H](C)[C@@](O)(O2)C(=O)C(=O)N2CCCC[C@H]2C(=O)O[C@H]([C@H](C)C[C@@H]2CC[C@@H](OP(C)(C)=O)[C@H](OC)C2)CC(=O)[C@H](C)/C=C(\C)[C@@H](O)[C@@H](OC)C(=O)[C@H](C)C[C@H](C)/C=C/C=C/C=C/1C [RIDAFOROLIMUS]	> 30 µM (inactive)	> 30 µM (inactive)	> 30 µM (inactive)	> 30 µM (inactive)	> 30 µM (inactive)
N#CC1(c2ccc(NC(=O)c3cccnc3NCc3ccncc3)cc2)CCCC1 [RIVOCERANIB]	> 30 µM (inactive)	> 30 µM (inactive)	> 30 µM (inactive)	> 30 µM (inactive)	> 30 µM (inactive)
O=c1[nH]ccc2cc(OC3CCNCC3)ccc12 [SAR-407899 FREE BASE]	> 30 µM (inactive)	> 30 µM (inactive)	> 30 µM (inactive)	> 30 µM (inactive)	> 30 µM (inactive)
CN1CCN(CCOc2cc(OC3CCOCC3)c3c(Nc4c(Cl)ccc5c4OCO5)ncnc3c2)CC1 [SARACATINIB]	> 30 µM (inactive)	> 30 µM (inactive)	> 30 µM (inactive)	> 30 µM (inactive)	> 30 µM (inactive)
Cn1cc(-c2cnn3c(N)c(Br)c([C@@H]4CCCNC4)nc23)cn1 [SCH-900776]	> 30 µM (inactive)	> 30 µM (inactive)	> 30 µM (inactive)	> 30 µM (inactive)	> 30 µM (inactive)
CO[C@H]1C[C@@H]2CC[C@@H](C)[C@@](O)(O2)C(=O)C(=O)N2CCCC[C@H]2C(=O)O[C@H]([C@H](C)C[C@@H]2CC[C@@H](OC(=O)C(C)(CO)CO)[C@H](OC)C2)CC(=O)[C@H](C)/C=C(\C)[C@@H](O)[C@@H](OC)C(=O)[C@H](C)C[C@H](C)/C=C/C=C/C=C/1C [TEMSIROLIMUS]	> 30 µM (inactive)	> 30 µM (inactive)	> 30 µM (inactive)	> 30 µM (inactive)	> 30 µM (inactive)
COc1cc2c(Nc3ccc(Cl)c(Cl)c3F)ncnc2cc1OC[C@@H]1C[C@@H]2CN(C)C[C@@H]2C1 [TESEVATINIB]	> 30 µM (inactive)	> 30 µM (inactive)	> 30 µM (inactive)	> 30 µM (inactive)	> 30 µM (inactive)
O=C(Cc1ccc(-c2ccc(OCCN3CCOCC3)cc2)cn1)NCc1ccccc1 [TIRBANIBULIN]	> 30 µM (inactive)	> 30 µM (inactive)	> 30 µM (inactive)	> 30 µM (inactive)	> 30 µM (inactive)
O=C1NC(=O)[C@@H](c2cn3c4c(cccc24)CCC3)[C@@H]1c1c[nH]c2ccccc12 [TIVANTINIB]	> 30 µM (inactive)	> 30 µM (inactive)	> 30 µM (inactive)	> 30 µM (inactive)	> 30 µM (inactive)
C[C@@H](NC(=O)c1ncnc(N)c1Cl)c1ncc(C(=O)Nc2cc(C(F)(F)F)c(Cl)cn2)s1 [TOVORAFENIB]	> 30 µM (inactive)	> 30 µM (inactive)	> 30 µM (inactive)	> 30 µM (inactive)	> 30 µM (inactive)
Cc1cc(Nc2ncnc3ccc(NC4=NC(C)(C)CO4)cc23)ccc1Oc1ccn2ncnc2c1 [TUCATINIB]	> 30 µM (inactive)	> 30 µM (inactive)	> 30 µM (inactive)	> 30 µM (inactive)	> 30 µM (inactive)
CC(C)c1cc(CNc2nc(Nc3cc(C4CC4)[nH]n3)cc(N3CCN(C)CC3)n2)on1 [XL-228]	> 30 µM (inactive)	0.045 µM (active)	> 30 µM (inactive)	> 30 µM (inactive)	> 30 µM (inactive)
C[C@@H](N)c1ccc(C(=O)Nc2ccnc3[nH]ccc23)cc1 [Y-39983]	> 30 µM (inactive)	> 30 µM (inactive)	> 30 µM (inactive)	> 30 µM (inactive)	> 30 µM (inactive)
CN1C/C=C/CCOc2cccc(c2)-c2ccnc(n2)Nc2cccc(c2)C1 [ZOTIRACICLIB]	> 30 µM (inactive)	> 30 µM (inactive)	> 30 µM (inactive)	> 30 µM (inactive)	> 30 µM (inactive)
